{"source": "patent US20030069295A1", "about": "“Use of histamine H3 receptor inverse agonists for the control of appetite and treatment of obesity” (Gliatech, Inc., priority 2001, published 2003)", "key": {"Histamine H3 receptor": {"molecular_target": "T1, Histamine H3 receptor (Rattus norvegicus, UniProt Q9QYN8)", "T1 construct": "The cerebral cortical tissues were harvested and frozen on dry ice; from tissue; host or cells: cerebral cortex membranes of male Sprague-Dawley rats", "T1 sequence (Q9QYN8 whole entry)": "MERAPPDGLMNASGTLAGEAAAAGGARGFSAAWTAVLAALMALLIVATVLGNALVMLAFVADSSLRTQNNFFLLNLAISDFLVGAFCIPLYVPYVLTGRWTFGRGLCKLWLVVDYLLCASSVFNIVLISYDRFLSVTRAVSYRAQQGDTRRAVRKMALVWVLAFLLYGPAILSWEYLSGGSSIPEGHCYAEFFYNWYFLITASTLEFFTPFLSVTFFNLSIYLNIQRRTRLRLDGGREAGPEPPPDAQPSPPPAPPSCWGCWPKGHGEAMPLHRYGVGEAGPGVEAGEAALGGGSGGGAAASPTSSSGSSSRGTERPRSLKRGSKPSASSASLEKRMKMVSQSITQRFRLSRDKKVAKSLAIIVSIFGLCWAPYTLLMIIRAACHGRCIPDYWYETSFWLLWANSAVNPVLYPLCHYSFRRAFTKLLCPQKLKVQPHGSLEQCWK", "experiment": "Histamine H3 receptor binding analysis, [3H]-Nα-methylhistamine competition in rat cerebral cortical membranes, with and without GTPγS", "conditions": "for Ki Ratio (−/+): Ki without GTPγS / Ki with GTPγS; for remaining activity at 0.0003 µM: read-out: percent of [3H]-Nα-methylhistamine bound (mean), 0.3 nM of compound; for remaining activity at 0.001 µM: read-out: percent of [3H]-Nα-methylhistamine bound (mean), 1 nM of compound; for remaining activity at 0.003 µM: read-out: percent of [3H]-Nα-methylhistamine bound (mean), 3 nM of compound; for remaining activity at 0.01 µM: read-out: percent of [3H]-Nα-methylhistamine bound (mean), 10 nM of compound; for remaining activity at 0.03 µM: read-out: percent of [3H]-Nα-methylhistamine bound (mean), 30 nM of compound; for remaining activity at 0.1 µM: read-out: percent of [3H]-Nα-methylhistamine bound (mean), 100 nM of compound; for remaining activity at 1 µM: read-out: percent of [3H]-Nα-methylhistamine bound (mean), 1000 nM of compound; for remaining activity at 10 µM: read-out: percent of [3H]-Nα-methylhistamine bound (mean), 10000 nM of compound", "procedure": "A histamine H3 receptor binding analysis to determine the affinity of various imidazole derivatives for G-protein uncoupled receptors was performed as follows. […] Animals were acclimated to laboratory conditions for a minimum of one week prior to tissue harvesting.\nAnimals were anesthetized by NO2 inhalation and euthanized by rapid decapitation. The cerebral cortical tissues were harvested and frozen on dry ice. Rat corticies were mechanically homogenized using a Tissue Tearer in 25 mM Tris buffer (pH 7.5 at 4° C.) containing: EDTA (10 mM), phenylmethylsulfonyl fluoride (0.1 mM), chymostatin and leupeptin (each 0.2 mg/50 mL). The homogenate was centrifuged in a Sorvall centrifuge at 40,000×g for 30 minutes. The pellet was re-suspended in 25 ml water and lysed on ice for 30 minutes. The homogenate was then re-centrifuged and the membrane lysis was repeated. The membranes were centrifuged and the final membrane pellets were resuspended in 14 volumes of water to yield approximately 200 μg protein/100 μl final concentration. The suspension was stored frozen at −80° C. prior to use. Protein concentrations were determined using the Coomassie Plus Protein Assay (available from Pierce of Rockford, Ill.).\nGTPγS causes dissociation of G-protein from receptors. Data are shown as percent of [^3H]-N^α-methylhistamine bound (mean) for each table."}, "Sprague-Dawley rats": {"test_system": "Sprague-Dawley rats", "experiment": "Food intake study in Sprague-Dawley rats", "assay_type": "in vivo, rat", "conditions": "for cumulative food intake, mean (g) ± sem: 10 mg/kg i.p., rats", "description": "The compounds summarized in Table 3 were examined for their ability to suppress food consumption by adult Sprague-Dawley rats. Male Sprague Dawley rats were purchased from Harlan Laboratories of Indianapolis, Ind. Rats were housed one per cage and maintained on a 12 hour light/dark schedule (lights-out at 12:30 p.m.) with ad libitum access to powdered Teklad Mouse/Rat Diet 7012 (available from Harlan Laboratories of Indianapolis, Ind.) and water. Rats were acclimated to laboratory conditions and food for 1 to 2 weeks prior to initiating food intake studies. On the day of experiments, test compounds were solubilized or suspended in vehicle/carrier and administered to rats (i.p. or p.o.) 30 to 60 minutes prior to the onset of the dark cycle. Food intake was determined at 1, 2, 4, and 24 hours following the onset of the dark cycle. Alternatively, rats were fasted (water provided) for 24 hours prior to evaluating the effects of compounds on food intake. For these studies, compounds or vehicle/carrier were administered and rats were placed in standard small animal metabolism chambers with ad ibitum access to powdered Teklad Mouse/Rat Diet 7012 and water. Food intake was determined at 2 and 4 hours following the onset of feeding.\nData is cumulative food intake in grams, mean±sem. In the table, * indicates a significant decrease in food intake compared to the vehicle-treated rats (t-test, p<0.05).\n(§1) The percent reduction in food intake by rats two hours after intraperitoneal administration of each compound is shown in Table 5. […] In Table 5, * indicates a significant decrease in food intake compared to the vehicle-treated rats (t-test, p<0.05). The ex vivo binding values in Table 5 represent the drug dose required to obtain ½-maximal H3 receptor occupancy in the brain following intraperitoneal administration. The dose values shown in Table 5 represent the dosage of drug utilized during the food intake studies. In all cases, the tested dose exceeded the amount needed to obtain ½-maximal H3 receptor occupancy in the brain."}, "H3 receptor": {"molecular_target": "T2, H3 receptor (Rattus norvegicus, UniProt Q9QYN8)", "T2 construct": "½-maximal H3 receptor occupancy in the brain following intraperitoneal administration; from tissue; host or cells: brain of dosed animals", "T2 sequence (Q9QYN8 whole entry)": "as above", "experiment": "Ex vivo binding: H3 receptor occupancy in the brain following intraperitoneal administration", "excerpt": "as §1"}, "[1]": {"conditions": "GTPγS-treated receptor preparation (G-protein uncoupled), read-out: Ki (+) GTPγS"}, "[2]": {"conditions": "untreated receptor preparation (mixture of coupled and uncoupled H3 receptors), read-out: Ki (−) GTPγS"}}, "note": "Read-outs that look alike come from different tables or passages of the source. Marks after values point to notes of the source that are not given here."}
{"smiles": "CC(C)(C)CCOC(=O)N[C@@H]1C[C@H]1c1c[nH]cn1", "note": "[Compound 9, 4-((1R,2R)-trans-2-(O-(3,3-dimethyl-but-1-yl)carboxamido)cyclopropyl)imidazole]", "values": [{"measurement": "Ki", "setting": "Histamine H3 receptor; [1]", "result": 4.5, "unit": "nM"}, {"measurement": "Ki Ratio (−/+)", "setting": "Histamine H3 receptor", "result": 1.6}, {"measurement": "Ki", "setting": "Histamine H3 receptor; [2]", "result": 7.3, "unit": "nM"}, {"measurement": "effect on food consumption by rats", "setting": "Sprague-Dawley rats; two hours after intraperitoneal administration, result in words", "result": "no measurable effect"}, {"measurement": "Ex Vivo Binding (drug dose required to obtain ½-maximal H3 receptor occupancy in the brain)", "setting": "H3 receptor", "result": "3.7 ± 0.4", "unit": "mg/kg"}]}
{"smiles": "O=C(N[C@@H]1C[C@H]1c1c[nH]cn1)OCC1CCCCC1", "note": "[Compound 3, 4-((1R,2R)-trans-2-(O-(2-cyclohexylmethyl)carboxamido)cyclopropyl)imidazole]", "values": [{"measurement": "Ki", "setting": "Histamine H3 receptor; Ki (+) GTPγS, GTPγS-treated receptor preparation (G-protein uncoupled)", "result": 4.2, "unit": "nM"}, {"measurement": "Ki", "setting": "Histamine H3 receptor; Ki (−) GTPγS, untreated receptor preparation (mixture of coupled and uncoupled H3 receptors)", "result": 10.1, "unit": "nM"}, {"measurement": "Ki Ratio (−/+)", "setting": "Histamine H3 receptor", "result": 2.4}, {"measurement": "cumulative food intake, mean (g) ± sem", "setting": "Sprague-Dawley rats; 1 hr following onset of dark cycle", "result": "1.8 ± 0.3* g"}, {"measurement": "cumulative food intake, mean (g) ± sem", "setting": "Sprague-Dawley rats; 2 hr following onset of dark cycle", "result": "4.4 ± 0.2* g"}, {"measurement": "cumulative food intake, mean (g) ± sem", "setting": "Sprague-Dawley rats; 4 hr following onset of dark cycle", "result": "7.1 ± 0.5* g"}, {"measurement": "cumulative food intake, mean (g) ± sem", "setting": "Sprague-Dawley rats; 24 hr following onset of dark cycle", "result": "17.4 ± 1.2* g"}, {"measurement": "effect of a single administration on food consumption", "setting": "Sprague-Dawley rats; single administration, up to 24 hours, result in words", "result": "significant reduction of food consumption"}, {"measurement": "Ex Vivo Binding (drug dose required to obtain ½-maximal H3 receptor occupancy in the brain)", "setting": "H3 receptor", "result": "2.6 ± 1.3", "unit": "mg/kg"}]}
{"smiles": "N[C@H](/C=C\\CCc1c[nH]cn1)CC1CCCCC1", "note": "[Compound 4, 4-(((5S)(3Z)-5-amino-6-cyclohexyl)hex-3-en-1-yl)imidazole]", "values": [{"measurement": "Ki", "setting": "Histamine H3 receptor; [1]", "result": 1.9, "unit": "nM"}, {"measurement": "Ki Ratio (−/+)", "setting": "Histamine H3 receptor", "result": 6.0}, {"measurement": "Ki", "setting": "Histamine H3 receptor; [2]", "result": 11.3, "unit": "nM"}, {"measurement": "Ex Vivo Binding (drug dose required to obtain ½-maximal H3 receptor occupancy in the brain)", "setting": "H3 receptor", "result": "˜15 mg/kg"}]}
{"smiles": "O=C(N[C@@H]1C[C@H]1c1c[nH]cn1)OCCC1CCCCC1", "note": "[Compound 1, 4-((1R,2R)-trans-2-(O-(2-cyclohexylethyl)carboxamido)cyclopropyl)imidazole]", "values": [{"measurement": "Ki", "setting": "Histamine H3 receptor; [1]", "result": 7.2, "unit": "nM"}, {"measurement": "Ki Ratio (−/+)", "setting": "Histamine H3 receptor", "result": 4.1}, {"measurement": "remaining activity at 0.0003 µM", "setting": "Histamine H3 receptor; Tris", "result": 108, "unit": "%"}, {"measurement": "remaining activity at 0.0003 µM", "setting": "Histamine H3 receptor; Tris-GTPγS", "result": 103, "unit": "%"}, {"measurement": "remaining activity at 0.001 µM", "setting": "Histamine H3 receptor; Tris", "result": 95.7, "unit": "%"}, {"measurement": "remaining activity at 0.001 µM", "setting": "Histamine H3 receptor; Tris-GTPγS", "result": 98.3, "unit": "%"}, {"measurement": "remaining activity at 0.003 µM", "setting": "Histamine H3 receptor; Tris", "result": 102, "unit": "%"}, {"measurement": "remaining activity at 0.003 µM", "setting": "Histamine H3 receptor; Tris-GTPγS", "result": 93.3, "unit": "%"}, {"measurement": "remaining activity at 0.01 µM", "setting": "Histamine H3 receptor; Tris", "result": 102, "unit": "%"}, {"measurement": "remaining activity at 0.01 µM", "setting": "Histamine H3 receptor; Tris-GTPγS", "result": 76.4, "unit": "%"}, {"measurement": "remaining activity at 0.03 µM", "setting": "Histamine H3 receptor; Tris", "result": 88.4, "unit": "%"}, {"measurement": "remaining activity at 0.03 µM", "setting": "Histamine H3 receptor; Tris-GTPγS", "result": 42.6, "unit": "%"}, {"measurement": "remaining activity at 0.1 µM", "setting": "Histamine H3 receptor; Tris", "result": 67.9, "unit": "%"}, {"measurement": "remaining activity at 0.1 µM", "setting": "Histamine H3 receptor; Tris-GTPγS", "result": 23.8, "unit": "%"}, {"measurement": "remaining activity at 1 µM", "setting": "Histamine H3 receptor; Tris", "result": 12.6, "unit": "%"}, {"measurement": "remaining activity at 1 µM", "setting": "Histamine H3 receptor; Tris-GTPγS", "result": 4, "unit": "%"}, {"measurement": "remaining activity at 10 µM", "setting": "Histamine H3 receptor; Tris", "result": -1.6, "unit": "%"}, {"measurement": "remaining activity at 10 µM", "setting": "Histamine H3 receptor; Tris-GTPγS", "result": 1.3, "unit": "%"}, {"measurement": "binding to GTPγS-treated cortical membrane preparation compared with non-treated preparation", "setting": "Histamine H3 receptor; result in words", "result": "higher apparent affinity"}, {"measurement": "Ki", "setting": "Histamine H3 receptor; [2]", "result": 29.3, "unit": "nM"}, {"measurement": "Ex Vivo Binding (drug dose required to obtain ½-maximal H3 receptor occupancy in the brain)", "setting": "H3 receptor", "result": "3.1 ± 1.3", "unit": "mg/kg"}]}
